In experiment [1] the target is T1, rat native α4β2 receptors (Rattus norvegicus, UniProt P09483+P12390).
T1 construct: rat native α4β2 receptors; from tissue; host or cells: rat (female Sprague-Dawley) cerebral cortex membranes
The experiment in a line: Radioligand binding, rat cortex membranes (α4β2). The note with it: read-out: Ki, inhibition of [3H]epibatidine binding to rat native α4β2 receptors. Here is the method:
Preparation of Membranes from Rat Cortex: Rats (Female, Sprague-Dawley), weighing 150-250 g, were maintained on a 12 h light/dark cycle and were allowed free access to water and food supplied by PMI Nutrition International, Inc. Animals were anesthetized with 70% CO2, and then decapitated. Brains were removed and placed on an ice-cold platform. The cerebral cortex was removed and placed in 20 volumes (weight:volume) of ice-cold preparative buffer (137 mM NaCl, 10.7 mM KCl, 5.8 mM KH2PO4, 8 mM Na2HPO4, 20 mM HEPES (free acid), 5 mM iodoacetamide, 1.6 mM EDTA, pH 7.4); PMSF, dissolved in methanol to a final concentration of 100 μM, was added and the suspension was homogenized by Polytron. […]
On the day of the assay, the frozen membranes were thawed and spun at 48,000×g for 20 min. […] Protein concentrations were determined using a Pierce BCA Protein Assay Kit, with bovine serum albumin as the standard (Pierce Chemical Company, Rockford, Ill.).
[…] Filters were then counted to determine radioactivity bound to the membranes by liquid scintillation counting (2200CA Tri-Carb LSC, Packard Instruments, 50% efficiency or Wallac Trilux 1450 MicroBeta, 40% efficiency, Perkin Elmer).
Data were expressed as disintegrations per minute (DPMs). […] Ki values were calculated using the Cheng-Prussof equation (1973): […]

The target in experiment [2] is T2, human native ganglion-type nicotinic receptors (likely α3β4) (Homo sapiens, UniProt P30926+P32297).
T2 construct: human native ganglion-type nicotinic receptors (likely α3β4); endogenous in cells; host or cells: SH-SY5Y
The experiment in a line: [3H]epibatidine binding, SH-SY5Y membranes. The note with it: read-out: Human ganglionic (SH-SY5Y), Ki.

Experiment [3] deals with α7 nicotinic ACh receptors (Homo sapiens, UniProt P36544). The experiment in a line: Electrophysiology at α7, dose-response and co-application with ACh (Dynaflow chip). In kind it is cell-based. Here is the method: Hump currents are defined as the tail current observed during co-application with endogenous ACh following agonist removal.
The channels were prepared as follows: Control solution (channel #2), application ligand itself (channel #3), application of acetylcholine itself (channel #1), and application of mixture of acetylcholine and ligand (channel #4).
Curve 1, FIG. 7B: The bar above the curve indicates time of ACh application. The curve represents current induced by a one second application of 70 μM ACh. The curve illustrates the result from moving the cell from channel #2 to channel #1 for a 1 second application of ACh and back to channel 2 (washout).
Curve 4, FIG. 7B: Curve 4 represents a repetition of Curve 1 at the end of measurements after application of the ligand and ACh/ligand mixture (recovery).
Curve 2, FIG. 7B: The down/up arrows indicates time of application.

Like-named read-outs stand apart in the source and are kept apart here.

α7 nicotinic ACh receptors, sequence (P36544 23-502): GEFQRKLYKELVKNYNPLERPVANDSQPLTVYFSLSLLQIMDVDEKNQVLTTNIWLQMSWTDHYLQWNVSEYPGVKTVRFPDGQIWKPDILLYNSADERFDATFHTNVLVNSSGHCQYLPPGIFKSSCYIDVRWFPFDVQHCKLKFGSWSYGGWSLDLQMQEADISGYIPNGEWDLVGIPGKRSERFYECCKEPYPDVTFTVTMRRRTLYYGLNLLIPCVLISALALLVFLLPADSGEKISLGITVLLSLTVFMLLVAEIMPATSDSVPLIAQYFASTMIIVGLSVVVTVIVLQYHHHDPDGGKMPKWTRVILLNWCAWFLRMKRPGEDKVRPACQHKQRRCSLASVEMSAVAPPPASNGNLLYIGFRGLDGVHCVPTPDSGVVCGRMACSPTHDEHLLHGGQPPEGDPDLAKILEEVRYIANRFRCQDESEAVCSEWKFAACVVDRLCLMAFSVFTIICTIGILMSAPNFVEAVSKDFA
T1 sequence (P09483 31-630): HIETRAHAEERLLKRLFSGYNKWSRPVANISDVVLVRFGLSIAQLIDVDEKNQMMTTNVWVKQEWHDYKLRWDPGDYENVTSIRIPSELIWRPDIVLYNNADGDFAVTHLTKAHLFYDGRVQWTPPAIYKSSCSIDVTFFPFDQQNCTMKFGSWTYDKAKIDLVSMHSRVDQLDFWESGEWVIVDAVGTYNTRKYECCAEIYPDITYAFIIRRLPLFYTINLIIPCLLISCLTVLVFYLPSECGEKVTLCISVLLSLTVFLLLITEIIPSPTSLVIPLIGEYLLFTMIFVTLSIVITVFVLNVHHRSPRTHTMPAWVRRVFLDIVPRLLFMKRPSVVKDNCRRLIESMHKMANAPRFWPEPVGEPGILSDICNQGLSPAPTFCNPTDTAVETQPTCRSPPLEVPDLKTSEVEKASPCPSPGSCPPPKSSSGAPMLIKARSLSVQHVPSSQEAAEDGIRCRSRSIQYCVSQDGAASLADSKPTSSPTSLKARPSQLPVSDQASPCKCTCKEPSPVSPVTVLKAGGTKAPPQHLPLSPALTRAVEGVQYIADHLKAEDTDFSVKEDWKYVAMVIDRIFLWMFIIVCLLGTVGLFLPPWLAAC
T1 sequence (P12390 25-500): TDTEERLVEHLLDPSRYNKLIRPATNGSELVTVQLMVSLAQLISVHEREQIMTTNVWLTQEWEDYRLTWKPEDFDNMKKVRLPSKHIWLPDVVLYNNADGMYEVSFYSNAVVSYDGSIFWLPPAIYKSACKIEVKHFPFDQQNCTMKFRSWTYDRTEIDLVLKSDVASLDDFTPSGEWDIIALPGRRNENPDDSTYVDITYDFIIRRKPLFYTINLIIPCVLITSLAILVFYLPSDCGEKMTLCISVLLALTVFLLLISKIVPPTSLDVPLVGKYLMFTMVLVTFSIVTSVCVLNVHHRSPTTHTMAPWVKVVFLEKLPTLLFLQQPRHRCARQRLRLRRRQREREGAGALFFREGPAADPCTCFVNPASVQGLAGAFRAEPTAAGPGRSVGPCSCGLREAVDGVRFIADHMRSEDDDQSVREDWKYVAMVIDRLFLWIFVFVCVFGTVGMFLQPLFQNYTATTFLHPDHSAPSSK
T2 sequence (P32297 32-505): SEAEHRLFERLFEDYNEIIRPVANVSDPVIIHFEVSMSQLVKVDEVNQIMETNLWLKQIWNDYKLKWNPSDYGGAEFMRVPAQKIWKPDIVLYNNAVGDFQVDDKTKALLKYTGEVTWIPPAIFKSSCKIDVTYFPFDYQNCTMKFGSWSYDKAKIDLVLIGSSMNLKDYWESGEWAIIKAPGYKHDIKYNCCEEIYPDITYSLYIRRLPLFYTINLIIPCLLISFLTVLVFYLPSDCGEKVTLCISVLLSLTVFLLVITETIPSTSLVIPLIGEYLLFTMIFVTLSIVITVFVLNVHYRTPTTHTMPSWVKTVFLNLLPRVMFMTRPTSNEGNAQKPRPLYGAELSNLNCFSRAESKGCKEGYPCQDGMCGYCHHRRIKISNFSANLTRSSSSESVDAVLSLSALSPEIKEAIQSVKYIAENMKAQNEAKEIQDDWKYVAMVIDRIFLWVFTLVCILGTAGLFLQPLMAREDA
T2 sequence (P30926 22-498): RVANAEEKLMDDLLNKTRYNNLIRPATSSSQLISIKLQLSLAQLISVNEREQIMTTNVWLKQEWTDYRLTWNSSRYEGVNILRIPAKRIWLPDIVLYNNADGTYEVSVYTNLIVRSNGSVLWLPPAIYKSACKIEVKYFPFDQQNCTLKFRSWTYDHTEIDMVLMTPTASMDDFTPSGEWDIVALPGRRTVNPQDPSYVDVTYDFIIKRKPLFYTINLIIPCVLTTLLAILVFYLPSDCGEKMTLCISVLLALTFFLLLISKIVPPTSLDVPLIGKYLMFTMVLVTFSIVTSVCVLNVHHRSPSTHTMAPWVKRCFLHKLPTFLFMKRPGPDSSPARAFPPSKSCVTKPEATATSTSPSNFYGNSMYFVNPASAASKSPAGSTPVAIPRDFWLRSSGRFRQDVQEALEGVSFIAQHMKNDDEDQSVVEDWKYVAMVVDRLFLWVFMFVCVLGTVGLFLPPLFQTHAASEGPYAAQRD

As for `O=C(N[C@@H]1C2CCN(CC2)[C@H]1Cc1cccnc1)c1cc(F)cc(F)c1` [Compound A], the results for the Ki in experiment [1] and in experiment [2] were 4120 nM and 48000 nM, respectively. Also, the “type of activity at the α7 NNR” value in experiment [3] is reported as “partial agonists”. Further, the “current on application of the ligand following application of ACh” value in experiment [3] (200 nM ligand, Curve 3 FIG. 7B) is listed as “profound “hump” current”. Besides, the “current on application of the ligand alone” value in experiment [3] (200 nM, 5 second application, Curve 2 FIG. 7B) is reported as “do not produce robust macro currents”. In addition, the “effect on ACh-induced current” value in experiment [3] (co-application of compound with ACh, FIG. 6) was “enhances ACh-induced current”. Also, the concentration for a half-maximal effect (EC50) stood at 120 nM in experiment [3] (co-application with ACh, 100-500 nM range, n=4, FIG. 7C, read-out: EC50 of hump current) and 1600 nM in experiment [3] (dose-response, FIG. 5, read-out: EC50 at α7 nicotinic receptors). In addition, the “concentration at Emax of hump current” value in experiment [3] (co-application with ACh, FIG. 7C) is “approximately 500 nM”. Besides, the Emax in experiment [3] (dose-response, FIG. 5) came out at 54.4%.

In general, Ki refers to a dissociation constant, usually derived from enzyme kinetics or from competition with a known ligand. The term EC50 denotes the concentration at which the effect is half-maximal. The Emax is the maximal effect, on the per cent scale that the assay sets.

Source of the values: US20110312961A1, “2,5-Disubstituted Morpholine Orexin REceptor Antagonists” (priority 2008, published 2011).
